16 compounds from PubChem BioAssay (NCI) can be followed below.

Holding throughout (experiment): DTP human tumour cell line panel, 48 h
Experiment [1] relates to ACHN renal.
The subject of experiment [2] is SK-MEL-5 melanoma.
Experiment [3] relates to HOP-62 NSCLC.
Experiment [4] deals with OVCAR-8 ovarian.
The subject of experiment [5] is OVCAR-4 ovarian.
In experiment [6] the test system is SF-539 CNS.
The test system of experiment [7] is MOLT-4 leukemia.
In experiment [8] the test system is MDA-MB-231 breast.
In experiment [9] the test system is KM12 colon.
Experiment [10] has as its system EKVX NSCLC.

Where “and” joins values, the source holds several entries; their conditions need not be identical. Identical values can stand only once.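 Results reflect a 48-hour exposure of cells in 96-well plates to compound at five concentrations. GI50: concentration for 50% inhibition of growth. Definition used: TGI = concentration required for complete inhibition of growth.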

The GI50 is the concentration giving 50% growth inhibition. What is called TGI is the concentration giving total growth inhibition. High values mean less potent growth arrest, low ones more potent growth arrest. `O=C(Nc1cccc(-n2cc(-c3ccncc3)c(-c3cc(O)cc(Cl)c3)n2)c1)c1cc(C(F)(F)F)cc(C(F)(F)F)c1`: the GI50 was 4.98 µM in experiment [1]; 2.61 µM in experiment [2]; 9.82 µM in [3]; 3.58 µM in experiment [4]; 8.53 µM in experiment [5]; 5.01 µM in [6]. Further, the GI50 in [7] is 2.38 µM; in experiment [8] it was 1.42 µM. Also, the TGI was over 100 µM in [1]; 8.67 µM in experiment [2]; over 100 µM in experiment [3]; over 100 µM in [4]; over 100 µM in experiment [5]; 51.7 µM in [6]. Further, the values for the TGI in [7] and in [8] were over 100 µM and 3.32 µM, respectively.
Consider `Cc1cc(N=Nc2ccccc2C)ccc1N`, for which the GI50 is 14.7 µM in experiment [1]; 14.1 µM in experiment [2]; 15.2 µM in experiment [3]; 20.7 µM in experiment [4]; 7.37 µM in experiment [9]; 0.967 µM in experiment [7]. Further, the figures for the GI50 in experiment [8] and in [10] were 12.7 µM and 11.7 µM, respectively. Also, the total growth inhibition concentration (TGI) in experiment [1] was 28.7 µM and 45.8 µM; in experiment [2], 29.2 µM and 27.4 µM; in experiment [3], 19.2 µM and 36.4 µM; in experiment [4], 34.6 µM and 96.4 µM; in [9], 23.2 µM and 21.5 µM; in [5] it was 62.3 µM. Further, the TGI in experiment [6] is 12.1 µM and 11.6 µM; in [7] it was over 100 µM; in [8], 30.7 µM and 28.4 µM; in experiment [10], 45.4 µM and 68 µM.
Consider `C(=N/N(Cc1ccccc1)Cc1ccccc1)/c1ccccc1`, for which the GI50 was over 100 µM in experiment [1]; 55.4 µM in experiment [2]; over 100 µM in experiment [3]; over 100 µM in experiment [4]; over 100 µM in [9]; over 100 µM in experiment [5]. Also, the GI50 in experiment [6] was over 100 µM; in experiment [8], over 100 µM; in [10], 59.3 µM. In addition, the TGI in [1], in [2], in experiment [3], in experiment [4], in experiment [9] and in [5] was over 100 µM in each case. Besides, the TGI in [6], in [8] and in experiment [10] was over 100 µM throughout.
In the case of `COc1ncnc(NS(=O)(=O)c2ccc(N=C3C(=O)N(CN4CCN(c5c(F)cc6c(=O)c(C(=O)O)cn(C7CC7)c6c5OC)CC4C)c4ccc(Br)cc43)cc2)c1OC` (stereo unspecified), the GI50 is 22.5 µM in experiment [1]; 5.52 µM in experiment [2]; 15.3 µM in [4]; 4.02 µM in experiment [9]; over 50 µM in [5]; 7.53 µM in experiment [6]. Moreover, the GI50 in experiment [7] was 18.3 µM; in experiment [8] it was 9.42 µM; in experiment [10], 6.4 µM. The TGI is over 50 µM in experiment [1]; 14.5 µM in experiment [2]; over 50 µM in experiment [4]; 15.9 µM in experiment [9]; over 50 µM in experiment [5]; 22.1 µM in [6]. For the same compound, the figures for the TGI in experiment [7], in [8] and in [10] were over 50 µM, 25.4 µM and 44.8 µM, respectively.
In the case of `COc1cc2c(cc1OC)-c1ncc3c(OC)c(OC)c(OC)cc3c1C2`, the GI50 was 16.7 µM in [1]; 23.5 µM in experiment [2]; 16 µM in experiment [3]; 16.3 µM in experiment [4]; 33.8 µM in experiment [9]; 96.5 µM in [5]. Further, the GI50 in [8] is 0.404 µM. Also, the TGI in experiment [1] is 43.8 µM; in experiment [2], over 100 µM; in experiment [3], 29.4 µM; in [4] it was 38.5 µM; in [9], over 100 µM; in [5] it was over 100 µM. Besides, the TGI in experiment [8] came out at 11.6 µM.
For `Cc1ccc(/C(C#N)=C/c2cccc([N+](=O)[O-])c2)cc1`, the TGI in experiment [1], in experiment [2], in [3], in experiment [4], in experiment [9] and in experiment [5] was over 100 µM in each case. Also, the TGI in experiment [6] was over 100 µM; in [8], 52.8 µM; in experiment [10] it was over 100 µM.
As for `CCc1cccc(C)c1NC(=O)c1sc2nc3c(cc2c1N)C(=O)CCC3`, the GI50 in experiment [1] was 0.872 µM; in experiment [2], 0.353 µM; in experiment [3], 10.7 µM; in experiment [4], 2.21 µM; in experiment [9], 0.455 µM; in [5], 0.78 µM. Further, the GI50 in experiment [7] was 2.62 µM; in [8], 1.42 µM. For the same compound, the TGI in [1] is over 100 µM; in [2], 5.89 µM; in experiment [3] it was over 100 µM; in experiment [4], over 91.7 µM; in [9], over 100 µM; in [5], over 100 µM. For the same compound, the TGI in experiment [7] was over 69.6 µM; in experiment [8], over 100 µM.
`CCCCCO/N=C\c1c2c(O)c3c(O)c(C)c4c(c3c1O)C(=O)C(C)(O/C=C\C(OC)C(C)C(OC(C)=O)C(C)C(O)C(C)C(O)C(C)/C=C\C=C(\C)C(=O)N2)O4` (stereo unspecified): the GI50 was 1.8 µM in experiment [1]; 1.5 µM in experiment [2]; 1.65 µM in [3]; 1.64 µM in [9]; 2.28 µM in experiment [5]; 1.98 µM in experiment [6]. Also, the GI50 was 2.8 µM in experiment [7], 1.75 µM in experiment [8] and 2.09 µM in experiment [10]. The TGI in [1] came out at 3.33 µM; in [2] it was 2.82 µM; in experiment [3] it was 3.04 µM; in [9], 3 µM; in experiment [5], 6.1 µM; in experiment [6], 3.86 µM. Moreover, the TGI in experiment [7] is 9.1 µM; in [8], 3.2 µM; in experiment [10] it was 6.95 µM.
Regarding `COC1C(O)C(CO)OC(OC2C(O)COC(OC3C(C)OC(OC4C(O[C@H]5CC[C@@]6(C)C(CC=C7[C@H]6CCC68C(=O)O[C@@](C)(CCCC(C)C)[C@H]6[C@@H](OC(C)=O)C[C@@]78C)C5(C)C)OCC(OS(=O)(=O)O)C4O)C(OC4OCC(O)C(O)C4O)C3O)C2O)C1O` (stereo partly specified), the GI50 in experiment [1] is 0.149 µM; in experiment [2] it was 0.473 µM; in [4], 0.165 µM; in [9], 0.0746 µM; in experiment [5] it was 0.147 µM; in experiment [6], 0.215 µM. Also, the GI50 in [7] was 0.153 µM; in experiment [8], 0.103 µM; in experiment [10], 0.101 µM. In addition, the TGI in experiment [1] amounted to 0.298 µM; in [2], 1.13 µM; in [4] it was 0.43 µM; in [9], 0.193 µM; in experiment [5], 0.433 µM; in [6], 0.606 µM. For the same compound, the TGI was determined as 0.368 µM in experiment [7], 0.325 µM in [8] and 0.565 µM in experiment [10].
For the compound `Cn1cc(C2=C(c3cccc(OC[C@@H](O)CO)c3)C(=O)NC2=O)c2ccccc21`, the GI50 in experiment [1] was 16.5 µM; in [2] it was over 8.72 µM; in experiment [3], over 25 µM; in experiment [4], over 25 µM; in experiment [9], 11 µM; in experiment [5], over 16.4 µM. The GI50 in experiment [6] was over 19.4 µM; in experiment [7] it was 16.1 µM; in experiment [8], over 25 µM. Further, the TGI in experiment [1], in experiment [2], in experiment [3], in experiment [4], in experiment [9] and in [5] was over 25 µM each time. Further, the TGI in experiment [6], in [7] and in [8] was over 25 µM throughout.
Regarding `C#CCNC(=O)[C@H](CC)[C@H]1CC[C@H](C)[C@H]([C@@H](C)[C@H](O)[C@H](C)C(=O)[C@H](CC)C2O[C@]3(C=CC(=O)[C@]4(CC[C@@](C)([C@H]5CC[C@](O)(CC)[C@H](C)O5)O4)O3)[C@H](C)C[C@@H]2C)O1` (stereo partly specified), the GI50 was 2.94 µM in experiment [1]; 1.69 µM in [2]; 1.99 µM in experiment [3]; 2.96 µM in [4]; 2.91 µM in experiment [5]; 1.75 µM in [6]. Also, the GI50 in experiment [7] was 2.44 µM; in [8] it was 1.92 µM; in [10], 2.59 µM. Also, the TGI in [1] was 14.6 µM; in experiment [2], 3.11 µM; in experiment [3], 4.91 µM; in experiment [4], 35.8 µM; in [5] it was over 100 µM; in [6], 3.36 µM. Moreover, the total growth inhibition concentration (TGI) in experiment [7] is 8.76 µM; in experiment [8], 5.14 µM; in [10], over 100 µM.
`O=C(O)c1cccc(C(=O)O)c1S(=O)Cc1ccccc1` (stereo unspecified): the TGI in experiment [1], in experiment [2], in experiment [3], in experiment [4], in experiment [9] and in experiment [5] was over 100 µM throughout. For the same compound, the concentration for total growth inhibition (TGI) in [6], in [8] and in [10] was over 100 µM throughout.
Take `O=C1c2sccc2-c2cccc3cccc1c23` (tested in a mixture with another compound): the TGI was 12.2 µM in experiment [1]; over 100 µM in experiment [3]; 36.4 µM in [4]; 28.6 µM in [9]; 33.9 µM in [5]; 32.2 µM in experiment [6]. Further, the TGI in experiment [7] amounted to 5.2 µM; in experiment [8] it was 54.3 µM; in experiment [10], 0.105 µM.
Consider `CC1=C(CC(=O)c2cccc([N+](=O)[O-])c2)C(=O)c2ccccc2C1=O`, for which the GI50 is 2.96 µM in experiment [1]; 1.67 µM in experiment [2]; 4.05 µM in experiment [3]; 5.87 µM in experiment [4]; 17.3 µM in [9]; 1.86 µM in experiment [5]. Further, the figures for the GI50 in experiment [6], in experiment [7] and in [8] were 3.02 µM, 3.27 µM and 1.89 µM, respectively. The TGI is 11.9 µM in experiment [1]; 3.73 µM in [2]; 16.1 µM in experiment [3]; 48.9 µM in experiment [4]; 49.5 µM in experiment [9]; 7 µM in experiment [5]. Moreover, the TGI in experiment [6] was 10.9 µM; in experiment [7] it was 14.1 µM; in [8], 12.7 µM.
Turning to `N#CCCN1C/C(=C/c2ccc(Cl)cc2)C(=O)/C(=C/c2ccc(Cl)cc2)C1`, the GI50 in experiment [1] is 1.63 µM; in [2] it was 1.59 µM; in experiment [3], 0.516 µM; in experiment [4], 0.543 µM; in experiment [9] it was 0.275 µM; in experiment [5], 3.01 µM. Further, the GI50 is 1.32 µM in [6], 1.94 µM in experiment [7] and 2.01 µM in experiment [8]. Moreover, the TGI was 3.28 µM in experiment [1]; 2.98 µM in experiment [2]; 2.94 µM in experiment [3]; 11.6 µM in experiment [4]; 0.841 µM in experiment [9]; 15.7 µM in [5]. In addition, the figures for the TGI in [6], in [7] and in experiment [8] were 2.74 µM, 8.39 µM and 7.44 µM, respectively.
Take `COc1cc2c(cc1OCCCCN1CCN(C(=S)SCCC(C#N)(c3ccccc3)c3ccccc3)CC1)N=C[C@@H]1CCCN1C2=O`: the GI50 in [2] is 1.11 µM; in experiment [3], 0.719 µM; in experiment [4], 1.59 µM; in experiment [9], 1.39 µM; in [5], 1.82 µM; in experiment [6], 1.69 µM. Moreover, the GI50 was 1.53 µM in [8] and 1.88 µM in experiment [10]. Also, the concentration for total growth inhibition (TGI) in experiment [2] is 2.82 µM; in [3], 2.4 µM; in experiment [4], over 100 µM; in experiment [9], 3.78 µM; in experiment [5], 17.7 µM; in experiment [6] it was 3.27 µM. Moreover, the TGI in experiment [8] turned out to be 4.73 µM; in experiment [10], 5.74 µM.
